Source: US20230073777A1, “CYCLIC-AMP RESPONSE ELEMENT BINDING PROTEIN (CBP) AND/OR ADENOVIRAL E1A BINDING PROTEIN OF 300 KDA (P300) DEGRADATION COMPOUNDS AND METHODS OF USE” (CULLGEN (SHANGHAI), INC., priority 2019, published 2023)

What follows are compounds tested on LNCaP cells (assay: LNCaP cell viability assay (CellTiter-Glo)). Conditions: Homo sapiens, 72 h; LNCaP prostate cancer cell viability inhibition, 3 days, CellTiter-Glo (Table 2).
Format: cell-based
Experimental: LNCaP cells seeded in 96-well plates were treated with 10 μM GNE-781 or selected bivalent compounds, i.e. P-001, P-002, and P-019, following a 12-point 3-fold serial dilution. Three days after treatment, cell viability was determined using the CellTiter-Glo kit (Promega) following manufacturer's instructions. Cell viability was normalized to the mean values of 3 replicates of untreated cells. Dose-dependent response was analyzed following the least-squares non-linear regression method using the GraphPad Prism 5.0 software.
LNCaP cells were treated with GNE-781 or selected bivalent compounds for 3 days at indicated concentrations following a 3-fold serial dilution.
Cells were seeded at a density of 5000 cells per well in 96-well assay plates and treated with test compounds following a 12-point 3-fold serial dilution. Three days later, cell viability was determined using the CellTiter-Glo assay kit according to the manufacturer's instructions. The dose-response curves were determined and IC50 values were calculated using the GraphPad Prism software following a nonlinear regression (least squares fit) method.
`CNC(=O)N1CCc2c(c(N3CCCc4cc(-c5cnn(C)c5)c(C(F)F)cc43)nn2C2CCN(C(=O)CNc3cccc4c3C(=O)N(C3CCC(=O)NC3=O)C4=O)CC2)C1` (stereo not drawn) [P-013] showed an IC50 of 105 nM.

Same assay, conditions: Homo sapiens, 72 h; LNCaP prostate cancer cell viability inhibition, 3 days, CellTiter-Glo (Table 3)
With `CNC(=O)N1CCc2c(c(N3CCCc4cc(-c5cnn(CC(=O)NCCOCCC(=O)N[C@H](C(=O)N6C[C@H](O)CC6C(=O)NCc6ccc(-c7scnc7C)cc6)C(C)(C)C)c5)c(C(F)F)cc43)nn2C2CCOCC2)C1` (stereo in doubt) [P-074, 3-(7-(Difluoromethyl)-6-(1-(2-((2-(3-(((S)-1-((2S,4R)-4-hydroxy-2-((4-(4-methylthiazol-5-yl)benzyl)carbamoyl)pyrrolidin-1-yl)-3,3-dimethyl-1-oxobutan-2-yl)amino)-3-oxopropoxy)ethyl)amino)-2-oxoethyl)-1H-pyrazol-4-yl)-3,4-dihydroquinolin-1(2H)-yl)-N-methyl-1-(tetrahydro-2H-pyran-4-yl)-1,4,6,7-tetrahydro-5H-pyrazolo[4,3-c]pyridine-5-carboxamide] the IC50 was > 10000 nM. For `CNC(=O)N1CCc2c(c(N3CCCc4cc(-c5cnn(CC(=O)NCCOCCOCCOCCOCCOCCC(=O)N[C@H](C(=O)N6C[C@H](O)CC6C(=O)NCc6ccc(-c7scnc7C)cc6)C(C)(C)C)c5)c(C(F)F)cc43)nn2C2CCOCC2)C1` (stereo in doubt) [P-082, 3-(7-(Difluoromethyl)-6-(1-((S)-23-((2S,4R)-4-hydroxy-2-((4-(4-methylthiazol-5-yl)benzyl)carbamoyl)pyrrolidine-1-carbonyl)-24,24-dimethyl-2,21-dioxo-6,9,12,15,18-pentaoxa-3,22-diazapentacosyl)-1H-pyrazol-4-yl)-3,4-dihydroquinolin-1(2H)-yl)-N-methyl-1-(tetrahydro-2H-pyran-4-yl)-1,4,6,7-tetrahydro-5H-pyrazolo[4,3-c]pyridine-5-carboxamide], the IC50 was > 10000 nM. For `CNC(=O)N1CCc2c(c(N3CCCc4cc(-c5cnn(CC(=O)NCCOCCOCC(=O)N[C@H](C(=O)N6C[C@H](O)CC6C(=O)NCc6ccc(-c7scnc7C)cc6)C(C)(C)C)c5)c(C(F)F)cc43)nn2C2CCOCC2)C1` (stereo in doubt) [P-083, 3-(7-(Difluoromethyl)-6-(1-((S)-13-((2S,4R)-4-hydroxy-2-((4-(4-methylthiazol-5-yl)benzyl)carbamoyl)pyrrolidine-1-carbonyl)-14,14-dimethyl-2,11-dioxo-6,9-dioxa-3,12-diazapentadecyl)-1H-pyrazol-4-yl)-3,4-dihydroquinolin-1(2H)-yl)-N-methyl-1-(tetrahydro-2H-pyran-4-yl)-1,4,6,7-tetrahydro-5H-pyrazolo[4,3-c]pyridine-5-carboxamide], the IC50 was > 10000 nM. For `CNC(=O)N1CCc2c(c(N3CCCc4cc(-c5cnn(C)c5)c(C(F)F)cc43)nn2C2CCN(C(=O)CCCCC#Cc3cccc4c3C(=O)N(C3CCC(=O)NC3=O)C4)CC2)C1` (stereo not drawn) [P-094, 3-(7-(Difluoromethyl)-6-(1-methyl-1H-pyrazol-4-yl)-3,4-dihydroquinolin-1(2H)-yl)-1-(1-(7-(2-(2,6-dioxopiperidin-3-yl)-3-oxoisoindolin-4-yl)hept-6-ynoyl)piperidin-4-yl)-N-methyl-1,4,6,7-tetrahydro-5H-pyrazolo[4,3-c]pyridine-5-carboxamide], the IC50 was 228 nM. Compound `CNC(=O)N1CCc2c(c(N3CCCc4cc(-c5cnn(C)c5)c(C(F)F)cc43)nn2C2CCN(CCCCCC#Cc3cccc4c3C(=O)N(C3CCC(=O)NC3=O)C4=O)CC2)C1` (stereo not drawn) [P-098, 3-(7-(Difluoromethyl)-6-(1-methyl-1H-pyrazol-4-yl)-3,4-dihydroquinolin-1(2H)-yl)-1-(1-(7-(2-(2,6-dioxopiperidin-3-yl)-1,3-dioxoisoindolin-4-yl)hept-6-yn-1-yl)piperidin-4-yl)-N-methyl-1,4,6,7-tetrahydro-5H-pyrazolo[4,3-c]pyridine-5-carboxamide] has an IC50 of 1070 nM. For `CNC(=O)N1CCc2c(c(N3CCCc4cc(-c5cnn(C)c5)c(C(F)F)cc43)nn2C2CCN(C(=O)CN3CCC(Nc4cccc5c4C(=O)N(C4CCC(=O)NC4=O)C5=O)CC3)CC2)C1` (stereo not drawn) [P-101, 3-(7-(Difluoromethyl)-6-(1-methyl-1H-pyrazol-4-yl)-3,4-dihydroquinolin-1(2H)-yl)-1-(1-(2-(4-((2-(2,6-dioxopiperidin-3-yl)-1,3-dioxoisoindolin-4-yl)amino)piperidin-1-yl)acetyl)piperidin-4-yl)-N-methyl-1,4,6,7-tetrahydro-5H-pyrazolo[4,3-c]pyridine-5-carboxamide], the IC50 was > 1000 nM. `CNC(=O)N1CCc2c(c(N3CCCc4cc(-c5cnn(C)c5)c(C(F)F)cc43)nn2C2CCN(C(=O)CN3CCC(C#Cc4cccc5c4C(=O)N(C4CCC(=O)NC4=O)C5=O)CC3)CC2)C1` (stereo not drawn) [P-103, 3-(7-(Difluoromethyl)-6-(1-methyl-1H-pyrazol-4-yl)-3,4-dihydroquinolin-1(2H)-yl)-1-(1-(2-(4-((2-(2,6-dioxopiperidin-3-yl)-1,3-dioxoisoindolin-4-yl)ethynyl)piperidin-1-yl)acetyl)piperidin-4-yl)-N-methyl-1,4,6,7-tetrahydro-5H-pyrazolo[4,3-c]pyridine-5-carboxamide] gave an IC50 of 146 nM. For `CC(=O)N1CCc2c(c(N3CCCc4cc(-c5cnn(C)c5)c(C(F)F)cc43)nn2C2CCN(C3CCN(CCOc4cccc5c4C(=O)N(C4CCC(=O)NC4=O)C5=O)CC3)CC2)C1` (stereo not drawn) [P-134, 4-(2-(4-(5-Acetyl-3-(7-(difluoromethyl)-6-(1-methyl-1H-pyrazol-4-yl)-3,4-dihydroquinolin-1(2H)-yl)-4,5,6,7-tetrahydro-1H-pyrazolo[4,3-c]pyridin-1-yl)-[1,4′-bipiperidin]-1′-yl)ethoxy)-2-(2,6-dioxopiperidin-3-yl)isoindoline-1,3-dione], the IC50 was > 500 nM. In the case of `CC(=O)N1CCc2c(c(N3CCCc4cc(-c5cnn(C)c5)c(C(F)F)cc43)nn2C2CCN(CCCCCC(=O)Nc3cccc4c3C(=O)N(C3CCC(=O)NC3=O)C4=O)CC2)C1` (stereo not drawn) [P-136, 6-(4-(5-Acetyl-3-(7-(difluoromethyl)-6-(1-methyl-1H-pyrazol-4-yl)-3,4-dihydroquinolin-1(2H)-yl)-4,5,6,7-tetrahydro-1H-pyrazolo[4,3-c]pyridin-1-yl)piperidin-1-yl)-N-(2-(2,6-dioxopiperidin-3-yl)-1,3-dioxoisoindolin-4-yl)hexanamide], the IC50 is reported as > 500 nM. With `CNC(=O)N1CCc2c(c(N3CCCc4cc(-c5cnn(C)c5)c(C(F)F)cc43)nn2C2CCN(C(=O)CN3CCN(Cc4cccc5c4C(=O)N(C4CCC(=O)NC4=O)C5=O)CC3)CC2)C1` (stereo not drawn) [P-137, 3-(7-(Difluoromethyl)-6-(1-methyl-1H-pyrazol-4-yl)-3,4-dihydroquinolin-1(2H)-yl)-1-(1-(2-(4-((2-(2,6-dioxopiperidin-3-yl)-1,3-dioxoisoindolin-4-yl)methyl)piperazin-1-yl)acetyl)piperidin-4-yl)-N-methyl-1,4,6,7-tetrahydro-5H-pyrazolo[4,3-c]pyridine-5-carboxamide] the IC50 was > 500 nM. In the case of `CC(=O)N1CCc2c(c(N3CCCc4cc(-c5cnn(C)c5)c(C(F)F)cc43)nn2C2CCN(C(=O)CN3CCN(Cc4cccc5c4C(=O)N(C4CCC(=O)NC4=O)C5=O)CC3)CC2)C1` (stereo not drawn) [P-138, 4-((4-(2-(4-(5-Acetyl-3-(7-(difluoromethyl)-6-(1-methyl-1H-pyrazol-4-yl)-3,4-dihydroquinolin-1(2H)-yl)-4,5,6,7-tetrahydro-1H-pyrazolo[4,3-c]pyridin-1-yl)piperidin-1-yl)-2-oxoethyl)piperazin-1-yl)methyl)-2-(2,6-dioxopiperidin-3-yl)isoindoline-1,3-dione], the IC50 is reported as > 500 nM. For `CC(=O)N1CCc2c(c(N3CCCc4cc(-c5cnn(C)c5)c(C(F)F)cc43)nn2C2CCN(C3CCN(CCCOc4cccc5c4C(=O)N(C4CCC(=O)NC4=O)C5=O)CC3)CC2)C1` (stereo not drawn) [P-139, 4-(3-(4-(5-Acetyl-3-(7-(difluoromethyl)-6-(1-methyl-1H-pyrazol-4-yl)-3,4-dihydroquinolin-1(2H)-yl)-4,5,6,7-tetrahydro-1H-pyrazolo[4,3-c]pyridin-1-yl)-[1,4′-bipiperidin]-1′-yl)propoxy)-2-(2,6-dioxopiperidin-3-yl)isoindoline-1,3-dione], the IC50 was > 500 nM. In the case of `CC(=O)N1CCc2c(c(N3CCCc4cc(-c5cnn(C)c5)c(C(F)F)cc43)nn2C2CCN(C3CN(CCCOc4cccc5c4C(=O)N(C4CCC(=O)NC4=O)C5=O)C3)CC2)C1` (stereo not drawn) [P-140, 4-(3-(3-(4-(5-Acetyl-3-(7-(difluoromethyl)-6-(1-methyl-1H-pyrazol-4-yl)-3,4-dihydroquinolin-1(2H)-yl)-4,5,6,7-tetrahydro-1H-pyrazolo[4,3-c]pyridin-1-yl)piperidin-1-yl)azetidin-1-yl)propoxy)-2-(2,6-dioxopiperidin-3-yl)isoindoline-1,3-dione], the IC50 is reported as > 500 nM. In the case of `CNC(=O)N1CCc2c(c(N3CCCc4cc(-c5cnn(C)c5)c(C(F)F)cc43)nn2C2CCN(CCN3CCN(Cc4cccc5c4C(=O)N(C4CCC(=O)NC4=O)C5=O)CC3)CC2)C1` (stereo not drawn) [P-144, 3-(7-(Difluoromethyl)-6-(1-methyl-1H-pyrazol-4-yl)-3,4-dihydroquinolin-1(2H)-yl)-1-(1-(2-(4-((2-(2,6-dioxopiperidin-3-yl)-1,3-dioxoisoindolin-4-yl)methyl)piperazin-1-yl)ethyl)piperidin-4-yl)-N-methyl-1,4,6,7-tetrahydro-5H-pyrazolo[4,3-c]pyridine-5-carboxamide], the IC50 is reported as > 1000 nM.
